{
  "source": "patent US20230047208A1",
  "about": "“RNA Splicing Modulation” (The General Hospital Corporation, priority 2020, published 2023)",
  "key": {"CFTR channel": {"tested_on": "CFTR channel", "assay": "CFTR functional assessment, short circuit current (Ussing chamber) in CFBE cells stably expressing c.2988G>A", "format": "cell-based, human", "from_the_text": "WT CFTR-EMG-i14-i18, CFTR-EMG-i14-i18 harboring c.2988G>A, Flp-In-CFBE, and Flp-In-293 cells stably expressing WT-EMG and c.2988G>A EMG were generated. Both Flpin-293 and Flp-In-CFBE cells lack endogenous CFTR expression (CFBE41o-) and contain a single Flp recombinase target site. Co-transfection of EMG plasmid with pOG44 (a plasmid encoding Flp recombinase) allowed for genomic integration at the FRT site. Hygromycin was used for stable cell selection.\nAssessment of CFTR channel function and response to Compound (I) was performed in CFBEs stably expressing c.2988G>A. Briefly, CFBE stable cell lines were plated on snapwell filters. When transepithelial resistance reached ˜200Ω (˜ 5-7 days) as measured using Voltammeter (Physiologic Instruments), cells were treated with Compound (I) at varying doses (0.3 μM to 10 μM) for next 3 days. Filters were mounted in Ussing chambers (Physiological Instruments). A high chloride solution was added to the basolateral chamber and a low chloride solution was added to the apical chamber. After equilibration of currents, 10 μM forskolin (Selleckchem) was added to the basolateral side to activate CFTR channels via cAMP signaling. Currents were allowed to plateau, followed by acute addition of 10 μM ivacaftor at apical side for CFTR potentiation (Selleckchem). Inhibition of CFTR was performed using 10 μM Inh-172 (Selleckchem) added to the apical chamber.\nThe ability of Compound (I) to rescue chloride channel function was also assessed. CF bronchial epithelial (CFBE) cell lines was generated to stably express the splicing mutation c.2988G>A. Cells were grown in monolayers on filters and treated with increasing doses of Compound (I) (0.3 μM-10 μM) or DMSO for 3 days. Chloride channel function was assessed by measuring short circuit current (Isc) on treated CFBE cells. Forskolin was added to initiate CFTR channel activity via cAMP-mediated signaling, with further channel activation by Ivacaftor and inhibition with Inh-172, a CFTR-specific inhibitor (FIG. 9C, representative Isc tracing). CFTR-specific change in current (ΔIsc±SD) allows for measurement of chloride channel function (FIG. 9C). […] Significant recovery of CFTR function (˜3 fold) was observed following treatment with Compound (I) at 1, 3, 6, and 10 μM for 3 days, with a maximal increase in CFTR function achieved using 3 μM of Compound (I) (ΔIsc=37.168±4.32 μA/cm^2, FIG. 9C)."}, "ELP1 protein": {"tested_on": "ELP1 protein", "assay": "In vivo ELP1 protein quantification (ELP1-HTRF) in TgFD9 mouse tissues", "parameters": "species or system TgFD9 transgenic mice", "conditions": "brain, liver, kidney, heart and skin; TgFD9 mice, oral gavage once daily for 7 days, 10-100 mg/kg", "procedure": "FIGS. 7A-7G show the relative expression of full-length (FL) and Δ20 ELP1 mRNA (left panel), and ELP1 protein quantification (right panel) in brain (FIG. 7A) and liver (FIG. 7B) after oral doses of Compound (I) ranging from 10 to 100 mg/kg in adult transgenic TgFD9 mouse (n=4-6 mice in each treatment group). Comparisons were done within the same group, against the vehicle-treated mice. In the figure, *p<0.05; **p<0.01; ***p<0.001.\nFIGS. 7C-E show the relative expression of full-length (FL) and Δ20 ELP1 mRNA (left graphs), and ELP1 protein quantification (right graphs) in kidney (FIG. 7C), heart (FIG. 7D) and skin (FIG. 7E) after oral doses of Compound (I) ranging from 10 to 100 mg/kg in adult transgenic TgFD9 mouse (n=4-6 mice in each treatment group). […] The levels of compound were measured using mass spectrometry. […]\nCompound (I) was evaluated in vivo to determine whether splicing correction can lead to a concomitant increase in ELP1 protein. […]\nTissue samples were collected, snap frozen in liquid nitrogen, weighed, and homogenized on the TissueLyzer II (Qiagen) in RIPA buffer (Tris-HCl 50 mM, pH 7.4; NaCl 150 mM; NP-40 1%; sodium deoxycholate 0.5%; SDS 0.1%) containing a cocktail of protease inhibitors (Roche) at a tissue weight to RIPA buffer volume of 50 mg/mL. […] Fluorescence was measured at 665 nm and 620 nm on an EnVision multilabel plate reader (Perkin Elmer). […]"}},
  "data": [
    {"smiles": "Clc1nc(NCc2ccncc2)c2cc[nH]c2n1", "note": "[Compound (I), 2-chloro-N-(pyridin-4-ylmethyl)-7H-pyrrolo[2,3-d]pyrimidin-4-amine]", "values": [
      {"measurement": "CFTR-specific change in current ΔIsc (±SD)", "setting": "CFTR channel; CFBE c.2988G>A, 3 μM, 3 days (maximal increase)", "value": "37.168±4.32", "unit": "μA/cm^2"},
      {"measurement": "recovery of CFTR function", "setting": "CFTR channel; CFBE c.2988G>A, 1, 3, 6 and 10 μM, 3 days, versus DMSO", "value": "~3", "unit": "fold"},
      {"measurement": "chloride channel function", "setting": "CFTR channel; CFBE c.2988G>A, Compound (I) in combination with Ivacaftor", "value": "~30 % of WT"},
      {"measurement": "chloride channel function", "setting": "CFTR channel; CFBE c.2988G>A, Compound (I) treatment alone", "value": "~20 % of WT"},
      {"measurement": "increase in functional ELP1 protein", "setting": "ELP1 protein", "value": "at least a two-fold increase"}
    ]}
  ]
}
